Reference: US8361968B2 (Takeda Pharmaceutical Company Limited, priority 2002, dated 2013)
Numbered stars: 1 amine (or outer) side, 2 acyl side, 3 side chain; on linkers, the order of the positions; unused ones are H or OH. Square brackets hold non-standard residues; d marks the D form. Ends that are not written are not given here. Peptide text beside a SMILES is read from it. * marks the point of attachment. X5 = NC(=O)C[C@@H](CN([C@@H](Cc1c[nH]c2ccccc12)C(=O)[*:2])[*:1])N[*:3]; Phe(4-Cl) = N[C@@H](Cc1ccc(Cl)cc1)C(=O)O; 2Nal = N[C@@H](Cc1ccc2ccccc2c1)C(=O)O; Arg(Me) = CNC(=N)NCCC[C@H](N)C(=O)O; d3Pal = N[C@H](Cc1cccnc1)C(=O)O; X3 = NC(=S)[C@H](Cc1ccccc1)N*; azaGly = NNC(=O)O

target: hOT7T175 (Homo sapiens, UniProt Q969F8, L364H); test: Intracellular Ca ion level-increasing activity using FLIPR in hOT7T175/CHO; assay type: cell-based; set-up: expressed in transfected cells; host or cells: CHO/dhfr- cells, obtained from ATCC; conditions: relative, Metastin (1-54) = 1
Sequence (Q969F8 whole entry L364H): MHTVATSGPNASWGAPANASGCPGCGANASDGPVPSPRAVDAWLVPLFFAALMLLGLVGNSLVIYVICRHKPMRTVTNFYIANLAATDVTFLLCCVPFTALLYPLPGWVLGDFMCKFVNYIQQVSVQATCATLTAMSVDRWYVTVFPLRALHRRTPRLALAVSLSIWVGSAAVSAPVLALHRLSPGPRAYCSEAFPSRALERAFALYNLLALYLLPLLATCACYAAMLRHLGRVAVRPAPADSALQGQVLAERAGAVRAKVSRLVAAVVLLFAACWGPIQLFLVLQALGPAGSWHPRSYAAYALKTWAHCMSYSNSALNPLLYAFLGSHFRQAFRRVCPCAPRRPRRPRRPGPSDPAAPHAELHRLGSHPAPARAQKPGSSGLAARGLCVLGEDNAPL
Method: Assay for Intracellular Ca Ion Level-Increasing Activity Using Flipr
In accordance with the method described in JPA 2000-312590, the intracellular Ca ion level-increasing activity was measured using FLIPR.
The stable expression cell line hOT7T175 was acquired by transduction of expression plasmid pAK-rOT175 for animal cells into CHO/dhff cells, using CellPhect Transfection Kit (Amersham Pharmacia Biotech, Inc.). First, 240 μL of Buffer A (attached to CellPhect Transfection Kit) was added to 9.6 μg of plasmid DNA dissolved in 240 μl of distilled water, followed by stirring. After settling the mixture for 10 minutes, 480 μL of Buffer B (attached to CellPhect Transfection Kit) was added to the mixture, which was vigorously stirred to form DNA-containing liposomes. Then, 4×10^5 CHO/dhff cells (obtained from ATCC) were inoculated on a 60 mm Petri dish. […] After culturing the cells at 37° C. for 6 hours in 5% carbon dioxide gas, the cells were washed twice with serum-free Ham's F-12 medium and 3 ml of 15% glycerol was added to the cells in the Petri dish to treat for 2 minutes. The cells were again washed twice with serum-free Ham's F-12 medium followed by incubation in Ham's F-12 medium supplemented with 10% fetal bovine serum at 37° C. for 15 hours in 5% carbon dioxide gas. The cells were dispersed by trypsin treatment and recovered from the Petri dish. The recovered cells were inoculated on a 6-well plate in 1.25×10^4 cells/well and incubation was initiated at 37° C. in Dulbecco's modified Eagle medium (DMEM) medium (Nissui Seiyaku Co., Ltd.) containing 10% dialyzed fetal bovine serum (JRH BIOSCIENCES, Inc.) under 5% carbon dioxide gas. […] The medium was exchanged on Days 1 and 2 to remove the cells died.
The intracellular Ca ion level-increasing activity of the synthetic peptide in hOT7T175/CHO was determined using FLIPR (Molecular Devices, Inc.).
hOT7T175/CHO was subcultured in DMEM supplemented with 10% dialyzed fetal bovine serum (hereinafter abbreviated as dFBS) and provided for the experiment (hereinafter abbreviated as 10% dFBS/DMEM). The hOT7T175/CHO was suspended in 10% dFBS-DMEM in 15×10^4 cells/ml. The suspension was inoculated on a 96-well plate for FLIPR (Black Plate Clear Bottom, Coster, Inc.) at 200 μL each (3.0×10^4 cells/200 μL/well), followed by incubation at 37° C. overnight in a 5% CO2 incubator (hereinafter simply referred to as the cell plate). Then, 21 ml of HANKS/HBSS (9.8 g of HANKS, 0.35 g of sodium hydrogencarbonate, 20 ml of 1M HEPES; after adjusting the pH to 7.4 with 1N sodium hydroxide, the mixture was sterilized by filtration), 210 μl of 250 mM Probenecid and […] of fetal bovine serum (FBS) were mixed (HANKS/HBSS-Probenecid-FBS).
Furthermore, 2 vials of Fluo3-AM (50 μug/vial) were dissolved in 21 μL of dimethylsulfoxide and 21 μL of 20% Pluronic acid. The resulting solution was added to and mixed with 10 ml of HANKS/HBSS-Probenecid-FBS described above. After the culture medium was removed, the mixture was dispensed onto the cell plate in 100 μL each/well, followed by incubation at 37° C. for an hour in a 5% CO2 incubator (pigment loading). The peptide was dissolved in dimethylsulfoxide in 1×10^−3 M. The peptide solution was diluted with HANKS/HBSS containing 2.5 mM Probenecid, 0.2% BSA and 0.1% CHAPS.

`CNC(=N)NCCC[C@H](NC(=O)[C@H](CC(C)C)NC(=O)CNC(=O)[C@H](Cc1ccccc1)NC(=O)[C@H](C)NC(=O)[C@H](CC(N)=O)NC(=O)[C@H](Cc1c[nH]c2ccccc12)NC(=O)[C@H](CC(N)=O)NC(=O)[C@H](N)Cc1ccc(O)cc1)C(=O)N[C@@H](Cc1ccccc1)C(N)=O` [Compound No. 212] (H-[dY]NWNAFGL[Arg(Me)]F-NH2) was tested. Which “Specific Activity (intracellular Ca ion level-increasing activity)” value did it give?
The value was 10.

Which “Specific Activity (intracellular Ca ion level-increasing activity)” value does the source give for `CC(C)C[C@H](NC(=O)CNC[C@H](Cc1ccccc1)NC(=O)[C@H](CO)NC(=O)[C@H](CC(N)=O)NC(=O)[C@H](Cc1c[nH]c2ccccc12)NC(=O)[C@H](CC(N)=O)NC(=O)[C@@H](N)Cc1ccc(O)cc1)C(=O)N[C@@H](CCCNC(=N)N)C(=O)N[C@@H](Cc1ccccc1)C(N)=O` [Compound No. 163, Tyr-Asn-Trp-Asn-Ser-PheΨ(CH2NH)Gly-Leu-Arg-Phe-NH2] here?
Its value is 1.

With `CNC(=N)NCCC[C@H](NC(=O)[C@H](CC(C)C)NC(=O)CNC(=O)[C@H](Cc1ccccc1)NC(=O)[C@H](CO)NC(=O)[C@H](CC(N)=O)NC(=O)[C@H](Cc1c[nH]c2ccccc12)NC(=O)[C@H](N)Cc1ccc(O)cc1)C(=O)N[C@@H](Cc1ccccc1)C(N)=O` [Compound No. 217] (H-[dY]WNSFGL[Arg(Me)]F-NH2) as the molecule, how does the “Specific Activity (intracellular Ca ion level-increasing activity)” value read?
Its value is 20.

`CC(C)C[C@H](NC(=O)CNC(=O)[C@H](Cc1ccccc1)NC(=O)[C@H](CO)NC(=O)[C@H](CC(N)=O)NC(=O)[C@H](Cc1c[nH]c2ccccc12)NC[C@H](CC(N)=O)NC(=O)[C@@H](N)Cc1ccc(O)cc1)C(=O)N[C@@H](CCCNC(=N)N)C(=O)N[C@@H](Cc1ccccc1)C(N)=O` [Compound No. 295] (H-[X5](Tyr)NSFGLRF-NH2) was tested. Which “Specific Activity (intracellular Ca ion level-increasing activity)” value did it give?
The value was 1.

For “D-Tyr-Asn-Trp-Ser-Ser-Phe-Gly-Leu-Arg(Me)-Phe-NH2 ([dY]NWSSFGL[Arg(Me)]F-NH2; N-terminus assumed; SMILES CNC(=N)NCCC[C@H](NC(=O)[C@H](CC(C)C)NC(=O)CNC(=O)[C@H](Cc1ccccc1)NC(=O)[C@H](CO)NC(=O)[C@H](CO)NC(=O)[C@H](Cc1c[nH]c2ccccc12)NC(=O)[C@H](CC(N)=O)NC(=O)[C@H](N)Cc1ccc(O)cc1)C(=O)N[C@@H](Cc1ccccc1)C(N)=O) [Compound No. 207]”, which “Specific Activity (intracellular Ca ion level-increasing activity)” value is on record?
The value was “½”.

With `CC(=O)N[C@@H](Cc1ccc(O)cc1)C(=O)N[C@@H](CC(N)=O)C(=O)N[C@@H](Cc1c[nH]c2ccccc12)C(=O)N[C@@H](CC(N)=O)C(=O)N[C@@H](CO)C(=O)N[C@@H](Cc1ccccc1)C(=O)NCC(=O)N[C@@H](CC(C)C)C(=O)N[C@@H](CCCNC(=N)N)C(=O)N[C@@H](Cc1ccccc1)C(N)=O` [Compound No. 30] as the molecule, how does the “Specific Activity (intracellular Ca ion level-increasing activity)” value read?
The value was 10.

Which “Specific Activity (intracellular Ca ion level-increasing activity)” value does the source give for `CC(C)C[C@H](NC(=O)CNC(=O)[C@H](Cc1ccc(F)cc1)NC(=O)[C@H](CO)NC(=O)[C@H](CC(N)=O)NC(=O)[C@H](Cc1c[nH]c2ccccc12)NC(=O)[C@H](CC(N)=O)NC(=O)[C@@H](N)Cc1ccc(O)cc1)C(=O)N[C@@H](CCCNC(=N)N)C(=O)N[C@@H](Cc1ccccc1)C(N)=O` [Compound No. 154, Tyr-Asn-Trp-Asn-Ser-Phe(4F)-Gly-Leu-Arg-Phe-NH2] here?
The value was 5.

For `CNC(=N)NCCC[C@H](NC(=O)[C@H](CC(C)C)NC(=O)NNC(=O)[C@H](Cc1ccccc1)NC(=O)[C@H](CO)NC(=O)[C@H](CC(N)=O)NC(=O)[C@H](Cc1ccc2ccccc2c1)NC(=O)[C@H](CC(N)=O)NC(=O)[C@H](N)Cc1ccc(O)cc1)C(=O)N[C@@H](Cc1ccccc1)C(N)=O` [Compound No. 246, D-Tyr-Asn-Nal(2)-Asn-Ser-Phe-AzaGly-Leu-Arg(Me)-Phe-NH2] (H-[dY]N[2Nal]NSF[azaGly]L[Arg(Me)]F-NH2), which “Specific Activity (intracellular Ca ion level-increasing activity)” value is on record?
Its value is 2.

For `CC(C)C[C@H](NC(=O)CNC(=O)[C@H](Cc1ccccc1)NC(=O)[C@H](CO)NC(=O)[C@H](CC(N)=O)NC(=O)[C@@H](Cc1c[nH]c2ccccc12)NC(=O)[C@H](CC(N)=O)NC(=O)[C@@H](N)Cc1ccc(O)cc1)C(=O)N[C@@H](CCCNC(=N)N)C(=O)N[C@@H](Cc1ccccc1)C(N)=O` [Compound No. 40], which “Specific Activity (intracellular Ca ion level-increasing activity)” value is on record?
Its value is 30.

How did the “Specific Activity (intracellular Ca ion level-increasing activity)” value turn out when `CNC(=N)NCCC[C@H](NC(=O)[C@H](CC(C)C)NC(=O)NNC(=O)[C@H](Cc1ccccc1)NC(=O)[C@H](CO)NC(=O)[C@H](CC(N)=O)NC(=O)[C@H](Cc1c[nH]c2ccccc12)NC(=O)[C@H](CC(N)=O)NC(=O)[C@H](N)Cc1cccnc1)C(=O)N[C@@H](Cc1ccccc1)C(N)=O` [Compound No. 258, D-Pya(3)-Asn-Trp-Asn-Ser-Phe-AzaGly-Leu-Arg(Me)-Phe-NH2] (H-[d3Pal]NWNSF[azaGly]L[Arg(Me)]F-NH2) was run?
The value was 2.

For `CNC(=N)NCCC[C@H](NC(=O)[C@H](CC(C)C)NC(=O)NNC(=O)[C@H](Cc1ccccc1)NC(=O)[C@H](CO)NC(=O)[C@H](CC(N)=O)NC(=O)[C@@H](NC(=O)[C@H](CC(N)=O)NC(=O)[C@H](N)Cc1ccc(O)cc1)C(C)C)C(=O)N[C@@H](Cc1ccccc1)C(N)=O` [Compound No. 234, D-Tyr-Asn-Val-Asn-Ser-Phe-AzaGly-Leu-Arg(Me)-Phe-NH2] (H-[dY]NVNSF[azaGly]L[Arg(Me)]F-NH2; N-terminus assumed), which “Specific Activity (intracellular Ca ion level-increasing activity)” value is on record?
The value was 1.

Which “Specific Activity (intracellular Ca ion level-increasing activity)” value does the source give for `CC(C)C[C@H](NC(=O)CNC(=O)[C@H](Cc1ccccc1)NC(=O)[C@H](CO)NC(=O)[C@H](CC(N)=O)NC(=O)[C@H](Cc1c[nH]c2ccccc12)NC(=O)[C@H](CC(N)=O)NC(=O)[C@H](Cc1ccc(O)cc1)NC(=O)OCC1c2ccccc2-c2ccccc21)C(=O)N[C@@H](CCCNC(=N)N)C(=O)N[C@@H](Cc1ccccc1)C(N)=O` [Compound No. 31] here?
The value was 2.

How did the “Specific Activity (intracellular Ca ion level-increasing activity)” value turn out when `CNC(=N)NCCC[C@H](NC(=O)[C@H](CC(C)C)NC(=O)NNC(=O)[C@H](Cc1ccccc1)NC(=O)[C@H](CO)NC(=O)[C@H](CC(N)=O)NC(=O)[C@H](Cc1ccc(Cl)cc1)NC(=O)[C@H](CC(N)=O)NC(=O)[C@H](N)Cc1ccc(O)cc1)C(=O)N[C@@H](Cc1ccccc1)C(N)=O` [Compound No. 249, D-Tyr-Asn-Phe(4Cl)-Asn-Ser-Phe-AzaGly-Leu-Arg(Me)-Phe-NH2] (H-[dY]N[Phe(4-Cl)]NSF[azaGly]L[Arg(Me)]F-NH2) was run?
Its value is 1.

With `CC(C)C[C@H](NC(=O)CNC(=O)[C@H](Cc1ccccc1)NC(=O)[C@H](CO)NC(=O)[C@H](CC(N)=O)NC(=O)[C@H](Cc1c[nH]c2ccccc12)NC(=O)[C@H](CC(N)=O)NC(=O)[C@@H](N)Cc1ccc(O)cc1)C(=O)N[C@@H](CCCNC(=N)N)C(=O)N[C@@H](Cc1ccccc1)C(N)=S` [Compound No. 128] (H-YNWNSFGLR-X3) as the molecule, how does the “Specific Activity (intracellular Ca ion level-increasing activity)” value read?
Its value is 10.

With “D-Tyr-Asn-Trp-Asn-Ser-Phe-Ala-Leu-Arg(Me)-Phe-NH2 ([dY]NWNSFAL[Arg(Me)]F-NH2; N-terminus assumed; SMILES CNC(=N)NCCC[C@H](NC(=O)[C@H](CC(C)C)NC(=O)[C@H](C)NC(=O)[C@H](Cc1ccccc1)NC(=O)[C@H](CO)NC(=O)[C@H](CC(N)=O)NC(=O)[C@H](Cc1c[nH]c2ccccc12)NC(=O)[C@H](CC(N)=O)NC(=O)[C@H](N)Cc1ccc(O)cc1)C(=O)N[C@@H](Cc1ccccc1)C(N)=O) [Compound No. 173]” as the molecule, how does the “Specific Activity (intracellular Ca ion level-increasing activity)” value read?
The value was 1.

`CNC(=N)NCCC[C@H](NC(=O)[C@H](CC(C)C)NC(=O)NNC(=O)[C@H](Cc1ccccc1)NC(=O)[C@H](CO)NC(=O)[C@H](CC(N)=O)NC(=O)[C@H](Cc1c[nH]c2ccccc12)NC(=O)[C@@H](CO)NC(=O)[C@H](N)Cc1ccc(O)cc1)C(=O)N[C@@H](Cc1ccccc1)C(N)=O` [Compound No. 287, D-Tyr-D-Ser-Trp-Asn-Ser-Phe-AzaGly-Leu-Arg(Me)-Phe-NH2] (H-[dY][dS]WNSF[azaGly]L[Arg(Me)]F-NH2) was tested. Which “Specific Activity (intracellular Ca ion level-increasing activity)” value did it give?
Its value is 2.
